In article PMC7216583 (Parasites & Vectors, 2020):
Structures can show the parent of a compound that is named as a salt. Where two headings read alike, the source gives them in different places.

Assays:
[1] = test system: Toxoplasma gondii RH-2F tachyzoites; test: microbe, parasite or virus in culture; settings: 72 h
A375 cells = test system: A375 cells; parameters: method as in library vendor description; settings: Hsp90 inhibitor; ref library vendor description; cited from earlier work
in vitro = settings: human; for viability at 72 h: Host viability (%) mean
Aurora A = molecular target: Aurora A; parameters: method as in library vendor description; settings: ref library vendor description; cited from earlier work
[2] = test system: NS3/4A protease of hepatitis C virus (HCV); parameters: method as in library vendor description; settings: ref library vendor description; cited from earlier work
Kasumi-1 cells [3] = test system: Kasumi-1 cells; parameters: dose or concentration left out as unconfirmed; settings: cited from earlier work
[4] = test system: RH GFP-TgAtg8 tachyzoites; test: Intracellular proliferation assay; settings: NVP-AEW541 […], GSK-J4 HCl 5 μM, 24 h after 2 h infection
T. gondii RH strain [5] = test: Murine model of acute toxoplasmosis: survival; type: in vivo, BALB/c mice; settings: 50 mg/kg oral once daily for 5 days, RH tachyzoites ip, 20-day observation, n = 10; vehicle 11.9 ± 0.74 days
Method: To evaluate the ability of the two compounds to protect against acute T. gondii infection in vivo, we used a BALB/c murine model and challenged the mice with the RH-2F strain of T. gondii. Mice were divided into 4 groups consisting of 15 mice each and injected intraperitoneally with 10^3 RH strains per animal. Compounds were dissolved in DMSO and diluted in PBS prior to feeding to mice. After 4 h of infection, mice were treated for 5 consecutive days with daily oral administration of the specified compound at 50 mg/kg (once a day). Mice treated with pyrimethamine (50 mg/kg) were used as a positive control, and 1 ml PBS containing 11 μl of DMSO was used as a negative control. Within each group, 5 mice were euthanized at 7 dpi for comparison of parasite burden, and 10 mice were part of a 20-day survival experiment. Mice were monitored as described previously and scored twice per day for signs of toxoplasmosis, such as impaired mobility, difficulty in feeding, weight loss, self-mutilation and severe ascites. […] At the end of the experimental period, all remaining mice were euthanized.

[6] = test system: human foreskin fibroblasts (HFFs); test: In vitro drug efficacy: dose-response host cell viability by CCK8 (TD50); type: cell-based; settings: uninfected HFFs, serial dilutions 0 to 100 μM, 72 h
Method: Each selected compound with an initial concentration of 100 μM in the culture medium was added to the first column of HFFs (~ 250 cells/well) in a 96-well half-area plate and then diluted serially across the plate by 2-fold dilutions, leaving the final column drug-free. […] Fifty tachyzoites were then added at a MOI of 1:5 to each well in six of the eight rows. After a 72 h incubation, CPRG was added, and the absorbance was measured at 570 nm. Meanwhile, to measure the effect of each compound on the viability of host cells, CCK8 reagent was added to the two rows of uninfected HFFs and absorbance at 450 nm was measured after 2 h. The assay was performed in triplicate and repeated three times.

[7] = test system: Toxoplasma gondii RH-2F tachyzoites; test: microbe, parasite or virus in culture; type: cell-based; settings: 72 h, read-out: IC50 for parasite growth
[8] = cited from earlier work
GFP-TgAtg8 tachyzoites [9] = test: Flow cytometric analysis of the parasite cell cycle (PI staining); type: cell-based, Toxoplasma gondii; settings: 8 h with compound after PDTC synchronization
Method: Flow cytometric analyses were performed as described previously. Briefly, HFFs were infected with GFP-TgAtg8 tachyzoites at a MOI = 1. At 12 hpi, the cell cycle was synchronized by adding 80 μM pyrrolidine dithiocarbamate (PDTC, Sigma-Aldrich) and incubating at 37 °C and 5% CO2 for 8 h. After removing the PDTC, cells were incubated at 37 °C and 5% CO2 for 8 h in media containing the specified compound. The extracellular parasites were removed by washing with ice-cold PBS, and the intracellular tachyzoites were isolated by passage of host cells through a 27-gauge needle and purified with a 3 μm filter. The purified parasites were fixed with ice cold ethanol at − 20 °C for 24 h, and their DNA was stained by using propidium iodide (PI) solution (40 μg/ml PI, 360 μg/ml RNase A and 2% BSA in PBS) at 37 °C for 30 min in the dark. The stained parasites were filtered with a 5 μm pore filter and analysed on a FACSCanto™II flow cytometer (BD Biosciences, CA, USA). The results were analysed on an EPICS-XL flow cytometer (Beckman Coulter, CA, USA) by using SYSTEM II software (Beckman Coulter), and the percentages of the population in each phase of the cell cycle (G1, S, and G2 +M) were calculated. At least 10,000 events were collected per sample.

RH GFP-TgAtg8 parasites = test: Invasion assay; settings: pre-treated 8 h, GSK-J4 HCl 5 μM, invasion for 1 h
GFP-TgAtg8 tachyzoites [10] = test: Egress assay (A23187-induced); settings: compound for 24 h, 3 μM A23187 for 5 min
Kasumi-1 cells [11] = settings: in vitro; read-out: IC50 against Kasumi-1 cells; cited from earlier work
OSA 8 cells = test system: OSA 8 cells; parameters: method as in library vendor description; settings: HSP90 inhibitor; ref library vendor description; cited from earlier work
BxPC3 cells = test system: BxPC3 cells; parameters: method as in library vendor description; settings: ref library vendor description; cited from earlier work
Capan2 cells = test system: Capan2 cells; parameters: method as in library vendor description; settings: ref library vendor description; cited from earlier work
MIAPaCa2 cells = test system: MIAPaCa2 cells; parameters: method as in library vendor description; settings: ref library vendor description; cited from earlier work
PANC1 cells = test system: PANC1 cells; parameters: method as in library vendor description; settings: ref library vendor description; cited from earlier work
c-Raf-1Y340D/Y341D = test system: c-Raf-1Y340D/Y341D; parameters: method as in library vendor description; settings: ref library vendor description; cited from earlier work
CDK9 = test system: CDK9; parameters: method as in library vendor description; settings: ref library vendor description; cited from earlier work
EGFRL858R = test system: EGFRL858R; parameters: method as in library vendor description; settings: ref library vendor description; cited from earlier work
EGFR(E746_A750) = test system: EGFR(E746_A750); parameters: method as in library vendor description; settings: ref library vendor description; cited from earlier work
EGFRL858R/T790M = test system: EGFRL858R/T790M; parameters: method as in library vendor description; settings: ref library vendor description; cited from earlier work
[12] = Side effects / survival of uninfected healthy mice; type: in vivo, BALB/c mice; settings: healthy mice treated with compound, data not shown
Method: All mice were purchased from the Laboratory Animal Center, Wenzhou Medical University, Zhejiang, China. They were bred and handled in strict accordance with the Good Animal Practice requirements of the Animal Ethics Procedures and Guidelines of China. In a preliminary experiment aiming to assess the side effects of compounds, female BALB/c mice (6–8 weeks old, ~20 g) were orally administered with each compound at 50 mg/kg for 5 days and were monitored for 30 days. There was no obvious clinical toxicity after treatment with all compounds during this time period.

T. gondii RH strain [13] = test: Murine model of acute toxoplasmosis: tissue parasite burden by B1 gene qPCR; type: in vivo, BALB/c mice; settings: 7 dpi, 50 mg/kg oral for 5 days, n = 5, compared with vehicle control
Method: Meanwhile, the parasite burden in the brain, liver and spleen of infected mice was measured at 7 dpi as described previously. Briefly, whole organs were mixed in lysis buffer (50 mM Tris pH 8.0, 50 mM EDTA, 1% SDS, 50 mg/ml of proteinase K) and incubated overnight at 56 °C. Total genomic DNA from 25 mg of tissue in 100 μl of lysis buffer was then extracted using DNeasy Blood and Tissue Kit (Qiagen, Shanghai, China) following the manufacturer’s instructions. […]. Amplification was performed in a final volume of 20 μl using a ChamQ Universal SYBR qPCR Master Mix (Cat# Q711-02; Vazyme, Nanjing, China). Each reaction contained 10 μl of 2× ChamQ SYBR qPCR Master Mix, 1 μl of template DNA, 8.2 μl of distilled water and 0.4 μM each primer. The following amplification conditions were applied: 30 s at 95 °C; 40 cycles of 95 °C for 10 s, 60 °C for 30 s; and one cycle of 95 °C for 15 s, 60 °C for 1 min and 95 °C for 15 s. The number of parasites was calculated from the standard curve prepared in parallel.

IGF-1R = test system: IGF-1R; parameters: method as in library vendor description; settings: ref library vendor description; cited from earlier work
[14] = test system: NWT-21 cells (NIH3T3 stably expressing the human IGF-IR); settings: in vitro; read-out: IC50 against NWT-21 cells; cited from earlier work
NWT-21 fibrosarcoma = settings: dose of 50 mg/kg; cited from earlier work
[15] = test system: Toxoplasma gondii RH-2F tachyzoites; settings: 5 μM compound, 72 h, RH-2F in HFFs; DMSO 0%, 10 μM pyrimethamine 100% inhibition
[16] = test system: human foreskin fibroblasts (HFFs)
[17] = read-out: Parasite inhibition (%) mean, preliminary screen, mean

CC(C)c1cc(C(=O)N2Cc3ccc(CN4CCN(C)CC4)cc3C2)c(O)cc1O [AT13387]
inhibition of growth at 5 µM [1, 17]: -1.7% | IC50 (A375 cells): 18 nM

Cc1nc(N)sc1-c1ccnc(Nc2ccc(N3CCOCC3)cc2)n1 [CYC116]
inhibition of growth at 5 µM [1, 17]: 71.7% | viability at 72 h (in vitro): 60.6% | Ki (Aurora A): 8 nM

CC(C)(C)OC(=O)N[C@H]1CCCCC/C=C\[C@@H]2C[C@@]2(C(=O)NS(=O)(=O)C2CC2)NC(=O)[C@@H]2C[C@@H](OC(=O)N3Cc4cccc(F)c4C3)CN2C1=O [Danoprevir]
inhibition of growth at 5 µM [1, 17]: 0.9% | IC50 [2]: 0.2 to 3.5 nM

CCOC(=O)CCNc1cc(N2CCc3ccccc3CC2)nc(-c2ccccn2)n1 [GSK-J4 HCl]
leukemia infiltration in AML xenograft mouse model (Kasumi-1 cells [3]): decreased leukemia infiltration | inhibition at 5 µM ([1]; read-out: Parasite inhibition (%) Mean ± SD): 90.4 ± 1.4% | effect on Toxoplasma intracellular growth (tachyzoites per vacuole) [4]: significantly inhibited Toxoplasma intracellular growth | viability at 72 h, 5 µM (in vitro; Host viability (%) Mean ± SD): 92.2 ± 3.8% | viability at 72 h (in vitro): 92.2% | survival time of infected mice (T. gondii RH strain [5]): 15.2 ± 1.69 days | TD50 against HFF (host cell) [6]: 34.6 µM | IC50 ([7]; Toxoplasma gondii): 2370 nM | toxicity in experimental mice ([8]; 50 mg/kg of body weight for 4–6 weeks): no apparent toxicity | percentage of parasites in G1 phase (GFP-TgAtg8 tachyzoites [9]): 70.88% | percentage of parasites in G2 phase (GFP-TgAtg8 tachyzoites [9]): 0.00% | percentage of parasites in S phase (GFP-TgAtg8 tachyzoites [9]): 29.12% | effect on ability of parasites to invade host cells (RH GFP-TgAtg8 parasites): not affected | effect on Toxoplasma egress (GFP-TgAtg8 tachyzoites [10]): neither NVP-AEW541 nor GSK-J4 HCl inhibits Toxoplasma egress | IC50 (Kasumi-1 cells [11]): 5520 nM

CC(C)c1cc(-c2n[nH]c(=O)n2-c2ccc3c(ccn3C)c2)c(O)cc1O [Ganetespib (STA-9090)]
inhibition of growth at 5 µM [1, 17]: 5.1% | IC50 (OSA 8 cells): 4 nM

Nc1ccn([C@@H]2O[C@@H](CO)[C@@H](O)C2(F)F)c(=O)n1 [Gemcitabine HCl (Gemzar)]
inhibition of growth at 5 µM [1, 17]: 75.4% | viability (in vitro): 16.8% | IC50 (BxPC3 cells): 18 nM | IC50 (Capan2 cells): 12 nM | IC50 (MIAPaCa2 cells): 40 nM | IC50 (PANC1 cells): 50 nM

CCCS(=O)(=O)Nc1ccc(F)c(C(=O)c2c[nH]c3ncc(Cl)cc23)c1F [PLX-4720]
inhibition of growth at 5 µM [1, 17]: 0.2% | IC50 (c-Raf-1Y340D/Y341D): 6.7 nM

CC(C)(C)c1cnc(CSc2cnc(NC(=O)C3CCNCC3)s2)o1 [SNS-032 (BMS-387032)]
inhibition of growth at 5 µM [1, 17]: 9.9% | IC50 (CDK9): […]

C=CC(=O)Nc1cccc(Oc2nc(Nc3ccc(N4CCN(C)CC4)cc3)ncc2Cl)c1 [WZ3146]
inhibition of growth at 5 µM ([1]; read-out: Parasite inhibition (%) mean): -33.7% | IC50 (EGFRL858R): 2 nM | IC50 (EGFR(E746_A750)): 2 nM

C=CC(=O)Nc1cccc(Oc2nc(Nc3ccc(N4CCN(C)CC4)cc3OC)ncc2Cl)c1 [WZ4002]
inhibition of growth at 5 µM [1, 17]: -5.9% | IC50 (EGFRL858R): […] | IC50 (EGFRL858R/T790M): […]

CCc1nc(N)nc(N)c1-c1ccc(Cl)cc1 [pyrimethamine, Pyrimethamine]
survival of healthy (uninfected) mice [12]: survived | parasite burden in brain, liver and spleen (T. gondii RH strain [13]): lowest parasite burden in tissue

NVP-AEW541
IC50 (IGF-1R): 86 nM | effect on Toxoplasma intracellular growth (tachyzoites per vacuole) [4]: not impaired | IC50 [14]: 1640 nM | survival time of infected mice (T. gondii RH strain [5]): 14.6 ± 1.84 days | TD50 against HFF (host cell) [6]: 7.3 µM | anti-tumour activity in mouse model (NWT-21 fibrosarcoma): had anti-NWT-21 fibrosarcoma activity | IC50 ([7]; RH-2F-infected HFFs, serial dilutions 0 to 100 μM, β-Gal activity): 1170 nM | toxicity in experimental mice ([8]; 50 mg/kg of body weight for 1–2 weeks): no apparent toxicity | percentage of parasites in G1 phase (GFP-TgAtg8 tachyzoites [9]): 44.25% | percentage of parasites in G2 phase (GFP-TgAtg8 tachyzoites [9]): 8.30% | percentage of parasites in S phase (GFP-TgAtg8 tachyzoites [9]): 47.45% | effect on Toxoplasma egress (GFP-TgAtg8 tachyzoites [10]): neither NVP-AEW541 nor GSK-J4 HCl inhibits Toxoplasma egress | Parasite inhibition (%) Mean ± SD [15]: 91.5 ± 2.5% | Host viability (%) mean [16]: 80.7% | Host viability (%) Mean ± SD ([16]; 5 µM): 80.7 ± 1.2%
